# Laboratory results published in ChEMBL document CHEMBL1201862, “PubChem BioAssay data set” (2004).
# Calls of active or inactive are those of the source.
# Experiments:
# Cytochrome P450 2D6 = Cytochrome P450 2D6 (Homo sapiens, UniProt P10635);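 also: CYP2D6 member of a cytochrome P450 panel assay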
# Cytochrome P450 2C9 = Cytochrome P450 2C9 (Homo sapiens, UniProt P11712)
# cells = type: functional, cell-based; conditions: HEK-CNG
# Galanin receptor type 3 = Galanin receptor type 3 (Homo sapiens, UniProt O60755); experiment: Fluorescence-based cell-based primary high throughput dose response assay to identify antagonists of the Galanin Receptor 3 (GalR3).; type: functional
# [1] = target: T1, Sentrin-specific protease 8 (Homo sapiens, UniProt Q96LD8); type: functional
# T1 sequence (Q96LD8 whole entry): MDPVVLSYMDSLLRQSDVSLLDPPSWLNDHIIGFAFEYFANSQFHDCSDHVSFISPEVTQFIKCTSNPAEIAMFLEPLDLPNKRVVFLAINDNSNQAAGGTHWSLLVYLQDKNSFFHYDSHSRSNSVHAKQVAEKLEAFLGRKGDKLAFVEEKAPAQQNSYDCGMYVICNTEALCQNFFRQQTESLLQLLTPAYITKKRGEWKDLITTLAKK
# [2] = target: T1, Sentrin-specific protease 8; type: functional; remark: listed apart in the source
# fMet-Leu-Phe receptor = fMet-Leu-Phe receptor (Homo sapiens, UniProt P21462); experiment: formyl peptide receptor binders – dose response (AID 519); type: functional
# Steroidogenic factor 1 = Steroidogenic factor 1 (Homo sapiens, UniProt Q13285); experiment: Counterscreen for inverse agonists of the liver receptor homolog-1 (LRH-1; NR5A2): Luminescence-based cell-based high throughput dose response assay to identify inverse agonists of the Steroidogenic Factor 1 Nuclear Receptor (SF1; NR5A1).; type: functional
# [3] = nonselective StAR promoter luciferase inhibitors – cell-based, luminescence, luciferase reporter, counter-screen for LRH-1 inverse agonist project, dose response (AID 651969); type: functional
# [4] = target: Nuclear receptor subfamily 5 group A member 2 (Homo sapiens, UniProt O00482); type: functional, cell-based;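 also: HEK293T cells transfected with LRH-1 and a StAR promoter luciferase reporter; potency for inhibitors that lower LRH-1 driven reporter light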
# [5] = viability loss in HEK293T cells – cell-based, cherry-picks, cytotoxicity control for HIV Vif inhibitor project, dose response (AID 652208); type: functional
# [6] = HEK-293T viability loss after treatment – luminescence, T-cell screen hits, cytotoxicity control for TCR NF-kB inhibitor project, dose response (AID 489026); type: functional, cell-based;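 also: cells exposed to compound about 14 hours before the viability readout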
# [7] = target: COUP transcription factor 2 (Homo sapiens, UniProt P24468); experiment: Luminescence-based cell-based high throughput dose response assay to identify inhibitors of COUP-TFII (NR2F2).; type: functional;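 also: HEK293 cells transiently cotransfected with COUP-TFII expression vector and reporter; luciferase reporter luminescence driven by COUP-TFII from the pX2-168 reporter plasmid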
# INS1 = experiment: INS-1E survival protection against cytokine death – cell-based, luminescence, retest, dose response (AID 449756); type: functional; conditions: Rattus norvegicus;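 also: cell death triggered by IL-1 beta plus TNF-alpha plus IFN-gamma mixture; protective hits raise ATP signal compared with cytokine alone wells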
# [8] = target: T2, Heat shock factor protein 1 (Mus musculus, UniProt P38532); experiment: enhancement of HSF1-driven luciferase signal – cell-based, NIH3T3, luminescence, dose retest, confirmation (AID 435004); type: functional;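 also: stress induced by proteasome inhibitor MG132 added 30 min after compound; luciferase reporter driven by HSF1 response element in NIH3T3 cells; actives raise luminescence as potentiators of the MG132 stress response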
# T2 sequence (P38532 whole entry): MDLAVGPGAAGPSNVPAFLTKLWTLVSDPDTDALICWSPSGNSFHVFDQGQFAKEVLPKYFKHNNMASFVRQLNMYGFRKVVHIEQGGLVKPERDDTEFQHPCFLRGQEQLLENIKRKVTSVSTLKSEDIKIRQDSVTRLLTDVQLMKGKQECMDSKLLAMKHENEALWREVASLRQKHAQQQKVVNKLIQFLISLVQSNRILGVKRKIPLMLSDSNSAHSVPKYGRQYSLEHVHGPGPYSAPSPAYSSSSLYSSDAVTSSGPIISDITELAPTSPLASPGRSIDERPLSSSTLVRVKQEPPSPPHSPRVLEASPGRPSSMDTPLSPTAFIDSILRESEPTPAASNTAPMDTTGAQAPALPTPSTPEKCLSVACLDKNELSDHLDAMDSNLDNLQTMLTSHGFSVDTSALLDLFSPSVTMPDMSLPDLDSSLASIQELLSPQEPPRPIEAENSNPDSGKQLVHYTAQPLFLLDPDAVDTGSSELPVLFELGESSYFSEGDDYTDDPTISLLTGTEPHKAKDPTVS
# [9] = target: DNA repair and recombination protein RAD54-like (Homo sapiens, UniProt Q92698); experiment: RAD54 Holliday junction migration blockers – biochemical, fluorescence, cherry-picked samples, dose series, confirmation (AID 651657); type: functional
# [10] = target: Dual specificity protein phosphatase 3 (Homo sapiens, UniProt P51452); experiment: VHR phosphatase inhibition, dose response, selectivity assay for STEP inhibitor project, biochemical (AID 602374); type: functional; conditions: read-out: IC50_Mean
# Hexokinase HKDC1 = target: T3, Hexokinase HKDC1 (Homo sapiens, UniProt Q2TB90); experiment: activation of HKDC1 glucose phosphorylation – biochemical, W721R variant, dose response (AID 504730); type: functional
# T3 sequence (Q2TB90 whole entry): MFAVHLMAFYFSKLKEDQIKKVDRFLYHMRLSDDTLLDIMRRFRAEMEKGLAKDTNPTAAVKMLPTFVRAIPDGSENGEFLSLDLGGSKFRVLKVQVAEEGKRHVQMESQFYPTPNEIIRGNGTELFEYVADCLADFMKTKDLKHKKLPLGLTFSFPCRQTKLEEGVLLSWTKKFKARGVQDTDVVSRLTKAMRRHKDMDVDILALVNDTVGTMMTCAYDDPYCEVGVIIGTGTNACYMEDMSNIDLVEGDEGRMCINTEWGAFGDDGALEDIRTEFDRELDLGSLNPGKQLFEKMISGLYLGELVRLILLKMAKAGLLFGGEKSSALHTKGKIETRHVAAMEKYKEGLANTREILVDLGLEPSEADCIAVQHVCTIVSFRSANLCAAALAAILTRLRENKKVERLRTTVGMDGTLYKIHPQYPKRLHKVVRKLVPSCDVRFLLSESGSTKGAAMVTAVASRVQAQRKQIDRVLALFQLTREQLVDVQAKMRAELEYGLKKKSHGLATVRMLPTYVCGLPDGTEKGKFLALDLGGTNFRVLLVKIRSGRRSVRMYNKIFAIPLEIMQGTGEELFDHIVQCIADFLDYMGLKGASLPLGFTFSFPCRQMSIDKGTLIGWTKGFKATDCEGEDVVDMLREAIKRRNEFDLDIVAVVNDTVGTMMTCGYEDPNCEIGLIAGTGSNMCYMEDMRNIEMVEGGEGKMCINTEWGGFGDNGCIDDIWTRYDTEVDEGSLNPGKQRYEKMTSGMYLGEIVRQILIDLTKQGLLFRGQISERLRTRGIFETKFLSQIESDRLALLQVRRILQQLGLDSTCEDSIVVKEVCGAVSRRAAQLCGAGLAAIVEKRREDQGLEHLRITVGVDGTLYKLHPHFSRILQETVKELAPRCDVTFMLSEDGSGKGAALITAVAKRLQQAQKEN
# [11] = target: Tyrosine-protein phosphatase non-receptor type 5 (Homo sapiens, UniProt P54829); experiment: PTPN5 enzyme inhibition – biochemical, fluorescence intensity, uHTS hits, confirmation (AID 602372); type: functional; conditions: read-out: IC50_Mean
# [12] = target: Tyrosine-protein phosphatase non-receptor type 11 (Homo sapiens, UniProt Q06124); experiment: PTPN11 enzyme inhibitors – biochemical, selectivity assay for STEP inhibitor project, dose response (AID 602367); type: functional; conditions: read-out: IC50_Mean
# Hexokinase-1 = target: T4, Hexokinase-1 (Homo sapiens, UniProt P19367); experiment: HK1 enzyme activation by HKDC1 hits – biochemical, selectivity assay for HKDC1 activator project, dose response (AID 504762); type: functional
# T4 sequence (P19367 whole entry): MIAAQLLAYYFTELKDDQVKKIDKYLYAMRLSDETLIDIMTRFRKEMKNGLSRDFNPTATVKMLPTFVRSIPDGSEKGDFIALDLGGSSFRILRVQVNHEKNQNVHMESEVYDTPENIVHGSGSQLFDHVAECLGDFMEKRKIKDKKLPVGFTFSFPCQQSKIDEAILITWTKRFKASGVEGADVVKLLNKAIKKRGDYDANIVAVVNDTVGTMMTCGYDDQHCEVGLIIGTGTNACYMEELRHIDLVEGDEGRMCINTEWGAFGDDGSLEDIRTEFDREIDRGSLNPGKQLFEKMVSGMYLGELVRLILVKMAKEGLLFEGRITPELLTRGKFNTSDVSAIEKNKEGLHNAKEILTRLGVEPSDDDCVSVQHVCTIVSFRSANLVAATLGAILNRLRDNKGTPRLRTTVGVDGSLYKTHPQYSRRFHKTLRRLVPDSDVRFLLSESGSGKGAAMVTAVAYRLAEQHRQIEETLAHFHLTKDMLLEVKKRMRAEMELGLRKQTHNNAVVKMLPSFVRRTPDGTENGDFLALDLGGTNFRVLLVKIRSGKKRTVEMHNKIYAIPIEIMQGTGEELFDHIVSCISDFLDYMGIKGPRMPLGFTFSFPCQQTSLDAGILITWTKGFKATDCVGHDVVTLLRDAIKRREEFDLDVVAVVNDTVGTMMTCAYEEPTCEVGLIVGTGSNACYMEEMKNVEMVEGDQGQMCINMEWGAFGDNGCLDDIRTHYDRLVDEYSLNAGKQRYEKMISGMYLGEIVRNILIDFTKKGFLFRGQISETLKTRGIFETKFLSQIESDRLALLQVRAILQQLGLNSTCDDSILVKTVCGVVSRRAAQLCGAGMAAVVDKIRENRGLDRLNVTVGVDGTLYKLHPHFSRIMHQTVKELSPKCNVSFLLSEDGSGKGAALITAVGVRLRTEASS
# [13] = activation of miR-122 Renilla sensor silencing – cell-based, Huh7 psiCHECK-miR122, Renilla luciferase, cherry-picked, dose response (AID 651956); type: functional;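 also: huh7 hepatoma cells stably carrying a psiCHECK-2 miR-122 sensor plasmid; renilla luciferase signal reporting endogenous miR-122 activity after 48 h compound exposure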
# [14] = inhibitors of EBV LMP1 NF-kappaB signaling – cell-based, luciferase reporter, luminescence, dry powder, set 2, dose response (AID 624376); type: functional
# Albumin = Albumin (Bos taurus, UniProt P02769); experiment: Counterscreen for inhibitors of T-cell receptor (TCR)-CD3 interaction: Fluorescence-based biochemical high throughput dose response assay to identify inhibitors of T-cell receptor (TCR)-CD3 interaction using a TAMRA-labeled BSA probe.; type: functional
# [15] = target: T5, DNA repair protein RAD52 homolog (Homo sapiens, UniProt P43351); type: functional, biochemical
# T5 sequence (P43351 whole entry): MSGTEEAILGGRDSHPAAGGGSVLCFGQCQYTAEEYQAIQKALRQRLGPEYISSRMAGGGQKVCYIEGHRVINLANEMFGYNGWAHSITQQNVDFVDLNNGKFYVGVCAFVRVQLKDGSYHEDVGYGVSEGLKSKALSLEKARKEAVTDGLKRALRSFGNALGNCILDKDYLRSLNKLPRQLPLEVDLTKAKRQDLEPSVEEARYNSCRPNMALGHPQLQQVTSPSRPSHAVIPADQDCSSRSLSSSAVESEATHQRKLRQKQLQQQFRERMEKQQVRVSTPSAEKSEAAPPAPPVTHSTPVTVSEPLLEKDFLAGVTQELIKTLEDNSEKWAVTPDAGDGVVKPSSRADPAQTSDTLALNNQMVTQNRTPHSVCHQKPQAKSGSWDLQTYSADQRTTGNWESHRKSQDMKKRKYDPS
# Chain of fMet-Leu-Phe receptor (P21462 whole entry): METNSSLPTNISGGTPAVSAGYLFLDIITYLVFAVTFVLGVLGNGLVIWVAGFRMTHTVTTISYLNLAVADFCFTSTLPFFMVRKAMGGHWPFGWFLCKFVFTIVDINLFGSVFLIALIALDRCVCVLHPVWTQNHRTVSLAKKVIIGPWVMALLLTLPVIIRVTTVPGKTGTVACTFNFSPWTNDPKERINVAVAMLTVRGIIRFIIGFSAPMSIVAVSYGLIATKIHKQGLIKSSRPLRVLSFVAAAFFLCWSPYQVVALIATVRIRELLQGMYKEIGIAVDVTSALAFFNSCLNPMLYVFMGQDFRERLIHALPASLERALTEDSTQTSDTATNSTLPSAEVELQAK
# Chain of Steroidogenic factor 1 (Q13285 whole entry): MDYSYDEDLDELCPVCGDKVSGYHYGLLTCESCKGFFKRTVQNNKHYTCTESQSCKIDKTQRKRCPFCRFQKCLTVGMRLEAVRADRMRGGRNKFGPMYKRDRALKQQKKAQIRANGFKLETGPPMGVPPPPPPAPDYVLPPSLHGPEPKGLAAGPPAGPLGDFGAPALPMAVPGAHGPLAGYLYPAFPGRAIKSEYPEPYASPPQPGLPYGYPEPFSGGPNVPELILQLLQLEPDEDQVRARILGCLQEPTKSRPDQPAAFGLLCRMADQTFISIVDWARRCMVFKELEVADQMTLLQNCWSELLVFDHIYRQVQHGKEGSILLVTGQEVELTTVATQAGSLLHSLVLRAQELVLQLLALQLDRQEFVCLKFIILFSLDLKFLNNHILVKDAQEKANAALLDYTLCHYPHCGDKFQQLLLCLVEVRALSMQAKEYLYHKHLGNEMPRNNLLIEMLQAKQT
# Chain of DNA repair and recombination protein RAD54-like (Q92698 whole entry): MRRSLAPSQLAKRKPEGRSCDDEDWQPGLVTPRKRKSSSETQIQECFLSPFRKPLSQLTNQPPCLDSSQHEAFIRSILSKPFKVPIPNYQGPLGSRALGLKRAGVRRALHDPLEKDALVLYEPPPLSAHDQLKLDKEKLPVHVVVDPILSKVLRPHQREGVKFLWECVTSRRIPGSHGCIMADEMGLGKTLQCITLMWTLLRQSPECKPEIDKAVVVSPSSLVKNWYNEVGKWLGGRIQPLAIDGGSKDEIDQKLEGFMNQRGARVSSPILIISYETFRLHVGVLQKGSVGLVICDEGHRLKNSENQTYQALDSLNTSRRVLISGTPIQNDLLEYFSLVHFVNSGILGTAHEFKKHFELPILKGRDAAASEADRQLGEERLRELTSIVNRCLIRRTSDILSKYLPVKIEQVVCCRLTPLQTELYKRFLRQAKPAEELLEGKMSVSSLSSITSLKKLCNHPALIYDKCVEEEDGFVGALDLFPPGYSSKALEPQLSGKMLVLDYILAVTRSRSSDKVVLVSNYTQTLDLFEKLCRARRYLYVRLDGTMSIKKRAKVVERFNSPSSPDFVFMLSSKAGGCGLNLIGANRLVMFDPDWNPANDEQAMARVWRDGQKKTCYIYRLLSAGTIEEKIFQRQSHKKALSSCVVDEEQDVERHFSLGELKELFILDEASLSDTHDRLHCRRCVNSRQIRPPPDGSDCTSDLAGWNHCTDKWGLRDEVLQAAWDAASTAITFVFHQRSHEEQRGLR
# Chain of Nuclear receptor subfamily 5 group A member 2 (O00482 whole entry): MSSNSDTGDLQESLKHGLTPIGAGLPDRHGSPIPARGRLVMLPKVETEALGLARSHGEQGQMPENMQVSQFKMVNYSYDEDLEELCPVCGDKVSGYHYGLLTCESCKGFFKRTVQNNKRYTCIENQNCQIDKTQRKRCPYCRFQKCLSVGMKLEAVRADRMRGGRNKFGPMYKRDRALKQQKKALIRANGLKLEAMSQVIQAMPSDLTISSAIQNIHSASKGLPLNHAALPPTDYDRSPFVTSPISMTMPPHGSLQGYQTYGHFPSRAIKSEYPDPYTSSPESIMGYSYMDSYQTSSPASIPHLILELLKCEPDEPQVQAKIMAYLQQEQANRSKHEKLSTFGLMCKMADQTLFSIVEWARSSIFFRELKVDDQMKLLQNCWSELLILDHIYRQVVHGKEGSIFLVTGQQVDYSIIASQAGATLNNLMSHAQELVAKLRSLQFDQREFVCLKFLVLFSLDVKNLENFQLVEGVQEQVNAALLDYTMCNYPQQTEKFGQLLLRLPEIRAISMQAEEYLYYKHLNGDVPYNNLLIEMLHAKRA
# Chain of Galanin receptor type 3 (O60755 whole entry): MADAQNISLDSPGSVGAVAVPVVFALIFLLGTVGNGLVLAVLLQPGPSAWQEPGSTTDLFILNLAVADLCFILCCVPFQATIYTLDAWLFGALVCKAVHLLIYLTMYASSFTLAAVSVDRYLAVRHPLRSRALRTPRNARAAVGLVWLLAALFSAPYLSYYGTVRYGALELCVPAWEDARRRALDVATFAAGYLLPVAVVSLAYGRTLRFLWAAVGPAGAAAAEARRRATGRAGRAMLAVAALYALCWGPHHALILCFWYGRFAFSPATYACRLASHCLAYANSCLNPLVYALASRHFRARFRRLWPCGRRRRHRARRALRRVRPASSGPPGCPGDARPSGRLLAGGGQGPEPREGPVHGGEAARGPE
# Chain of Cytochrome P450 2D6 (P10635 whole entry): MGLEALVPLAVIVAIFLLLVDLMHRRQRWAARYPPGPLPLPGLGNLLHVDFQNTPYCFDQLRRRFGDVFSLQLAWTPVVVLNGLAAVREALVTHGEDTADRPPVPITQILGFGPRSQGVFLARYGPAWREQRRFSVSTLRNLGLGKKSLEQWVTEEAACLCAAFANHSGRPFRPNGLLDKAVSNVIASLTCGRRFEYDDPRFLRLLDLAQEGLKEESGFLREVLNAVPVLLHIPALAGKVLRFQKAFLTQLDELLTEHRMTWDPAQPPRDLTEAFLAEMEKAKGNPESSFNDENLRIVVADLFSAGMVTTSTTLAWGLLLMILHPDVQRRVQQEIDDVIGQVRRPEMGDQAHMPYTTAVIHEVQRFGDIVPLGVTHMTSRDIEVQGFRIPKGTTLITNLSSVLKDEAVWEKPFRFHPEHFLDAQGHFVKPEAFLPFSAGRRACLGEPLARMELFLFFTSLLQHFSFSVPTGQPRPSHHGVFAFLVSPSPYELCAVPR
# Chain of Dual specificity protein phosphatase 3 (P51452 whole entry): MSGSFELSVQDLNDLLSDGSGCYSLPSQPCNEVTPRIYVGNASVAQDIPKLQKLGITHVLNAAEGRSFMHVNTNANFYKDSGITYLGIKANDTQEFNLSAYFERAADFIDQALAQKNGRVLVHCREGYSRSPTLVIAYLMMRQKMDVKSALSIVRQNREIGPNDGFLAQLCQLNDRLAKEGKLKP
# Chain of Cytochrome P450 2C9 (P11712 whole entry): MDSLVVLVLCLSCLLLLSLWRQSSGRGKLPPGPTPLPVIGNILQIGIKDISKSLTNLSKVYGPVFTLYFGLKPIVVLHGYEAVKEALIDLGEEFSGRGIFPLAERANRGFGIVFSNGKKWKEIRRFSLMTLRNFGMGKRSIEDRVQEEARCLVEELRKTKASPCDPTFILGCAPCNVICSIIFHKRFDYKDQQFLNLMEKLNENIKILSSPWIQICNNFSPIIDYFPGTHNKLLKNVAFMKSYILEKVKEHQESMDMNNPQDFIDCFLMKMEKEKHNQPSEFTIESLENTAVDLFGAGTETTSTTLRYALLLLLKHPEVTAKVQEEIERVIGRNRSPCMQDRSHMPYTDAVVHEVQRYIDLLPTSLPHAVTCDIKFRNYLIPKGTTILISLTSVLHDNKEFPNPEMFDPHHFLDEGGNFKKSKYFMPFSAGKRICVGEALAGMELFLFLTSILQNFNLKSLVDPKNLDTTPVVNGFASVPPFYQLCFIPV
# Chain of Tyrosine-protein phosphatase non-receptor type 11 (Q06124 whole entry): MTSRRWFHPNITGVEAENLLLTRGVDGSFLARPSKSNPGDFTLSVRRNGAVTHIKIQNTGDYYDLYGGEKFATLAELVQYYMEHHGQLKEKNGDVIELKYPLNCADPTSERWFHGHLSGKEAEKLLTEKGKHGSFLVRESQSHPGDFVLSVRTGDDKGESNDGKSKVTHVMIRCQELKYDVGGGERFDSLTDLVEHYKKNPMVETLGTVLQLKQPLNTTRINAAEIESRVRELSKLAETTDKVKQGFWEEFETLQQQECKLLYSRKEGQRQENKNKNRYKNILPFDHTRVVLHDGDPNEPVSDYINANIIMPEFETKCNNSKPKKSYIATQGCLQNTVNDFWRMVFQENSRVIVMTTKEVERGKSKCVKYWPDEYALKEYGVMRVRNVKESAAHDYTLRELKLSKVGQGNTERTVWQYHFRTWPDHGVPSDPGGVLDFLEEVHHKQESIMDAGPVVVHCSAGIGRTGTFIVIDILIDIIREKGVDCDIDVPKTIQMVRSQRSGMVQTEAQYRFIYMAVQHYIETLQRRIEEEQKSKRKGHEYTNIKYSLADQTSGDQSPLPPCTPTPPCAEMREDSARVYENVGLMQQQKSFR
# Chain of COUP transcription factor 2 (P24468 whole entry): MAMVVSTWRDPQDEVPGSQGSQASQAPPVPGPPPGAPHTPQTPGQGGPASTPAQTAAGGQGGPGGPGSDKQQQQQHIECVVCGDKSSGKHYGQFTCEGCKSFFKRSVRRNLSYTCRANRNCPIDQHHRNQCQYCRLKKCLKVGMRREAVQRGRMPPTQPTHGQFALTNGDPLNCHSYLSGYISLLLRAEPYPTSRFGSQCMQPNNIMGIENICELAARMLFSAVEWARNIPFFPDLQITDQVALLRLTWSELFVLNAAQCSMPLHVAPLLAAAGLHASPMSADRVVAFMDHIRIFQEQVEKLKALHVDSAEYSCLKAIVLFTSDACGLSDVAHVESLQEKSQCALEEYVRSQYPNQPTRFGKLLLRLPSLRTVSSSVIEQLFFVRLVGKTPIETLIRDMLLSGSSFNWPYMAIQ
smiles,measurement,setting,value
Cc1nc2sc(C#N)c(N)c2c2c1CCCC2,AC50,Cytochrome P450 2D6,0.398 µM (inconclusive)
same,AC50,Cytochrome P450 2C9,inconclusive
same,EC50,cells,> 29.9 µM (inactive)
same,IC50,Galanin receptor type 3,> 29.9 µM (inactive)
O=C(COC(=O)c1cc(S(=O)(=O)N2CCc3ccccc3C2)ccc1Cl)NCc1ccco1,IC50,[1],> 100 µM (inactive)
same,IC50,[2],12.4 µM (active)
COc1ccc(-c2nc(N3CCCC3)[nH]c(=O)c2C#N)cc1,Ki,fMet-Leu-Phe receptor,> 66.7 µM (inactive)
CN(C)S(=O)(=O)c1cccc(C(=O)OCC(=O)Nc2ccc3c(c2)OCCO3)c1,IC50,Steroidogenic factor 1,3.18 µM (active)
same,IC50,[3],35.9 µM (inactive)
same,IC50,[4],90.5 µM (inactive)
Cc1cc(NC(=O)CSc2nnc(Cn3c(=O)sc4ccccc43)n2-c2ccccc2C)no1,Ki,fMet-Leu-Phe receptor,> 66.7 µM (inactive)
COC(=O)c1ccc2c(=O)n(Cc3ccco3)c(SCC(=O)Nc3cc(C)on3)nc2c1,AC50,[5],35.7 µM (active)
O=C(CSc1nnc(Cn2nnc3ccccc32)o1)N(Cc1ccc(F)cc1)c1ccccc1,IC50,[6],> 80 µM (inactive)
same,IC50,[7],4.87 µM (active)
same,EC50,cells,> 29.9 µM (inactive)
same,IC50,Galanin receptor type 3,1.24 µM (active)
same,AC50,INS1,4.43 µM (active)
CCOC(=O)c1c(NC(C)=O)sc2c(O)c(CN3CCN(CC)CC3)ccc12,EC50,[8],55.8 µM (active)
same,AC50,[9],32.1 µM (active)
CC(=NNC(=S)N1CC2CCC(CC2)C1)c1cccc(C)n1,IC50,[10],7.77 µM (active)
same,EC50,Hexokinase HKDC1,> 80 µM (inactive)
same,IC50,[11],> 80 µM (inactive)
same,IC50,[12],6.06 µM (active)
same,EC50,Hexokinase-1,> 80 µM (inactive)
COc1ccc(Nc2nc(NCCN3CCOCC3)nc(Nc3ccc(OC)cc3)n2)cc1,IC50,Steroidogenic factor 1,4.32 µM (active)
same,IC50,[3],12 µM (inactive)
same,IC50,[4],5.3 µM (active)
C[C@@H]1CN([C@@H](C)CO)S(=O)(=O)c2ccc(-c3ccccc3)cc2O[C@@H]1CN(C)C(=O)c1ccc2c(c1)OCO2,AC50,[13],16.3 µM (active)
COc1ccc(-c2coc3c(C(=O)Nc4cccc(C(C)=O)c4)cccc23)c(C)c1,AC50,[5],> 52 µM (inactive)
COc1cccc(S(=O)(=O)N(C)C[C@H]2Oc3cc(C4=CCCCC4)ccc3S(=O)(=O)N([C@@H](C)CO)C[C@@H]2C)c1,AbsAC35,[14],64.1 µM
CNC(=S)N/N=C/c1cc(Br)cc(Br)c1O,IC50,Albumin,> 94.1 µM (inactive)
CCOC(=O)c1cnc2ccc(OCC)cc2c1NCCCN1CCOCC1,AC50,[15],11.2 µM (active)
same,AC50,[9],11.7 µM (active)
